MIC, HC10 and Activity data for 7 molecules are collected here from ChEMBL document CHEMBL6134890, “Terminally Symmetric β-Turn Peptides for Multidrug-Resistant Bacterial Infections” (J Med Chem, 2025).

For data set [1], the system named is Staphylococcus aureus. Nature of the data set: Antimicrobial activity against Staphylococcus aureus ATCC 25923 assessed as reduction in bacterial growth by broth dilution method. The format is functional. Background: Broth dilution looks for growth in wells or tubes with falling amounts of substance.
Data set [2] has as its system Staphylococcus aureus. Put plainly: Antimicrobial activity against multi-drug resistant Staphylococcus aureus assessed as reduction in bacterial growth by broth dilution method. The format is functional.
Data set [3] has as its system Staphylococcus epidermidis. Put plainly: Antimicrobial activity against multi-drug resistant Staphylococcus epidermidis assessed as reduction in bacterial growth by broth dilution method. It counts as functional.
For a further data set, the system named is Enterococcus faecalis. Nature of the data set: Antimicrobial activity against multi-drug resistant Enterococcus faecalis assessed as reduction in bacterial growth by broth dilution method. It counts as functional.
Data set [4] relates to Escherichia coli. Nature of the data set: Antimicrobial activity against Escherichia coli ATCC 25922 assessed as reduction in bacterial growth by broth dilution method. The format is functional.
Data set [5] has as its system Escherichia coli. Nature of the data set: Antimicrobial activity against multi-drug resistant Escherichia coli assessed as reduction in bacterial growth by broth dilution method. It counts as functional.
A further data set relates to Klebsiella pneumoniae. Put plainly: Antimicrobial activity against multi-drug resistant Klebsiella pneumoniae assessed as reduction in bacterial growth by broth dilution method. The format is functional.
For another data set, the system named is Acinetobacter baumannii. Put plainly: Antimicrobial activity against multi-drug resistant Acinetobacter baumannii assessed as reduction in bacterial growth by broth dilution method. It counts as functional.
Data set [6] can be described thus: Hemolytic activity in human Red blood cell assessed as hemolysis incubated for 1 hrs by microplate reader based analysis. The format is toxicity. As to conditions: erythrocyte.
For the next data set, the system named is BEAS-2B. Put plainly: Cytotoxicity against human BEAS-2B cells at 2 to 256 uM measured after 24 hrs by CCK-8 method. It counts as toxicity, cell-based. As to conditions: dose 2-256 µM. For orientation: Tetrazolium dyes change colour on reduction, which living cells bring about.
A further data set deals with HEK-293T. Put plainly: Cytotoxicity against HEK293T cells at 2 to 256 uM measured after 24 hrs by CCK-8 method. The format is toxicity, cell-based. As to conditions: human, dose 2-256 µM.
The next data set has as its system L02. Nature of the data set: Cytotoxicity against human LO2 cells at 2 to 256 uM measured after 24 hrs by CCK-8 method. It counts as toxicity, cell-based. As to conditions: l02, 24 h, dose 2-256 µM.

Converted amounts (≈) assume the structure as drawn. Bridge positions count the residues as written; N and C are the ends. Square brackets hold non-standard residues; d marks the D form. Peptide text beside a SMILES is read from it. * marks the point of attachment. X1 = CC[C@H](C)CCCCC(=O)*; Dab = NCC[C@H](N)C(=O)O

In general, MIC refers to the least concentration at which growth counts as inhibited. For `NCCCC[C@H](NC(=O)[C@H](Cc1ccccc1)NC(=O)[C@H](CCCCN)NC(=O)[C@H](Cc1ccccc1)NC(=O)[C@H](CCCCN)NC(=O)[C@@H]1CCCN1C(=O)[C@H](Cc1c[nH]c2ccccc12)NC(=O)[C@H](Cc1c[nH]c2ccccc12)NC(=O)[C@H](Cc1c[nH]c2ccccc12)NC(=O)[C@@H]1CCCN1C(=O)[C@H](CCCCN)NC(=O)[C@H](Cc1ccccc1)NC(=O)[C@H](CCCCN)NC(=O)[C@H](Cc1ccccc1)NC(=O)[C@@H](N)CCCCN)C(N)=O` (H-KFKFKPWWWPKFKFK-NH2), the MIC with Staphylococcus aureus [1] came out at 4 µM (≈ 8.51 µg/mL); in the data set with Staphylococcus aureus [2], 4 µM (≈ 8.51 µg/mL); in data set [3] it was 4 µM (≈ 8.51 µg/mL); with Enterococcus faecalis, 2 µM (≈ 4.26 µg/mL); in the data set with Escherichia coli [4], 2 µM (≈ 4.26 µg/mL); with Escherichia coli [5], 4 µM (≈ 8.51 µg/mL). Further, the MIC in the data set with Klebsiella pneumoniae and in the data set on Acinetobacter baumannii was 4 µM (≈ 8.51 µg/mL) each time. Also, the HC10 in data set [6] was greater than 256 µM. Also, the Activity entry in the data set on BEAS-2B, in the data set with HEK-293T and in the data set with L02 was “Toxic” in each case.

As to `NCCCC[C@H](NC(=O)[C@H](Cc1c[nH]c2ccccc12)NC(=O)[C@H](CCCCN)NC(=O)[C@H](Cc1c[nH]c2ccccc12)NC(=O)[C@H](CCCCN)NC(=O)[C@H](Cc1ccccc1)NC(=O)[C@@H]1CCCN1C(=O)[C@H](Cc1c[nH]c2ccccc12)NC(=O)[C@H](Cc1c[nH]c2ccccc12)NC(=O)[C@H](Cc1c[nH]c2ccccc12)NC(=O)[C@@H]1CCCN1C(=O)[C@H](Cc1ccccc1)NC(=O)[C@H](CCCCN)NC(=O)[C@H](Cc1c[nH]c2ccccc12)NC(=O)[C@H](CCCCN)NC(=O)[C@H](Cc1c[nH]c2ccccc12)NC(=O)[C@@H](N)CCCCN)C(N)=O` (H-KWKWKFPWWWPFKWKWK-NH2), the MIC worked out at 4 µM (≈ 10.3 µg/mL) with Staphylococcus aureus [1]; 8 µM (≈ 20.6 µg/mL) in the data set with Staphylococcus aureus [2]; 8 µM (≈ 20.6 µg/mL) in [3]; 8 µM (≈ 20.6 µg/mL) in the data set on Enterococcus faecalis; 8 µM (≈ 20.6 µg/mL) in the data set on Escherichia coli [4]; 4 µM (≈ 10.3 µg/mL) in the data set on Escherichia coli [5]. The MIC with Klebsiella pneumoniae and with Acinetobacter baumannii was 8 µM (≈ 20.6 µg/mL) throughout. Also, the HC10 in data set [6] was determined as 2.1 µM.

On to `NCCCC[C@H](NC(=O)[C@H](Cc1c[nH]c2ccccc12)NC(=O)[C@H](CCCCN)NC(=O)[C@H](Cc1c[nH]c2ccccc12)NC(=O)[C@H](CCCCN)NC(=O)[C@@H]1CCCN1C(=O)[C@H](Cc1c[nH]c2ccccc12)NC(=O)[C@H](Cc1c[nH]c2ccccc12)NC(=O)[C@H](Cc1c[nH]c2ccccc12)NC(=O)[C@@H]1CCCN1C(=O)[C@H](CCCCN)NC(=O)[C@H](Cc1c[nH]c2ccccc12)NC(=O)[C@H](CCCCN)NC(=O)[C@H](Cc1c[nH]c2ccccc12)NC(=O)[C@@H](N)CCCCN)C(N)=O` (H-KWKWKPWWWPKWKWK-NH2), for which the MIC (in the data set on Staphylococcus aureus [1]; with Staphylococcus aureus [2]; in data set [3]; with Enterococcus faecalis; with Escherichia coli [4]; with Escherichia coli [5]) was 4 µM (≈ 9.14 µg/mL) throughout. For the same molecule, the MIC with Klebsiella pneumoniae and in the data set on Acinetobacter baumannii was 4 µM (≈ 9.14 µg/mL) in each case. In addition, the HC10 in [6] worked out at 64.03 µM.

In the case of `NCCCC[C@H](NC(=O)[C@H](Cc1c[nH]c2ccccc12)NC(=O)[C@H](CCCCN)NC(=O)[C@H](Cc1c[nH]c2ccccc12)NC(=O)[C@@H]1CCCN1C(=O)[C@H](Cc1c[nH]c2ccccc12)NC(=O)[C@H](Cc1c[nH]c2ccccc12)NC(=O)[C@H](Cc1c[nH]c2ccccc12)NC(=O)[C@@H]1CCCN1C(=O)[C@H](Cc1c[nH]c2ccccc12)NC(=O)[C@H](CCCCN)NC(=O)[C@H](Cc1c[nH]c2ccccc12)NC(=O)[C@@H](N)CCCCN)C(N)=O` (H-KWKWPWWWPWKWK-NH2), the MIC worked out at 2 µM (≈ 4.05 µg/mL) with Staphylococcus aureus [1]; 2 µM (≈ 4.05 µg/mL) with Staphylococcus aureus [2]; 2 µM (≈ 4.05 µg/mL) in [3]; 2 µM (≈ 4.05 µg/mL) in the data set with Enterococcus faecalis; 8 µM (≈ 16.2 µg/mL) in the data set on Escherichia coli [4]; 4 µM (≈ 8.11 µg/mL) in the data set with Escherichia coli [5]. Moreover, the results for the minimum inhibitory concentration (MIC) with Klebsiella pneumoniae and with Acinetobacter baumannii were 16 µM (≈ 32.4 µg/mL) and 4 µM (≈ 8.11 µg/mL), respectively. For the same molecule, the HC10 in [6] worked out at 10.37 µM.

On to `NCCCC[C@H](NC(=O)[C@H](Cc1c[nH]c2ccccc12)NC(=O)[C@H](CCCCN)NC(=O)[C@H](Cc1ccccc1)NC(=O)[C@@H]1CCCN1C(=O)[C@H](Cc1c[nH]c2ccccc12)NC(=O)[C@H](Cc1c[nH]c2ccccc12)NC(=O)[C@H](Cc1c[nH]c2ccccc12)NC(=O)[C@@H]1CCCN1C(=O)[C@H](Cc1ccccc1)NC(=O)[C@H](CCCCN)NC(=O)[C@H](Cc1c[nH]c2ccccc12)NC(=O)[C@H](CCCCN)NC(=O)[C@@H](N)Cc1c[nH]c2ccccc12)C(=O)N[C@@H](Cc1c[nH]c2ccccc12)C(N)=O` (H-WKWKFPWWWPFKWKW-NH2), for which the MIC in the data set with Staphylococcus aureus [1] was found to be 8 µM (≈ 18.6 µg/mL); in the data set on Staphylococcus aureus [2], 16 µM (≈ 37.1 µg/mL); in data set [3] it was 16 µM (≈ 37.1 µg/mL); in the data set on Enterococcus faecalis, 16 µM (≈ 37.1 µg/mL); in the data set with Escherichia coli [4], 128 µM (≈ 297 µg/mL); in the data set with Escherichia coli [5], 128 µM (≈ 297 µg/mL). The MIC with Klebsiella pneumoniae came out at 256 µM (≈ 594 µg/mL); in the data set with Acinetobacter baumannii, 16 µM (≈ 37.1 µg/mL). Besides, the HC10 in [6] was 6.82 µM.

As for `NCCCC[C@H](NC(=O)[C@H](Cc1c[nH]c2ccccc12)NC(=O)[C@H](CCCCN)NC(=O)[C@@H]1CCCN1C(=O)[C@H](Cc1c[nH]c2ccccc12)NC(=O)[C@H](Cc1c[nH]c2ccccc12)NC(=O)[C@H](Cc1c[nH]c2ccccc12)NC(=O)[C@@H]1CCCN1C(=O)[C@H](CCCCN)NC(=O)[C@H](Cc1c[nH]c2ccccc12)NC(=O)[C@H](CCCCN)NC(=O)[C@@H](N)Cc1c[nH]c2ccccc12)C(=O)N[C@@H](Cc1c[nH]c2ccccc12)C(N)=O` (H-WKWKPWWWPKWKW-NH2), the MIC turned out to be 4 µM (≈ 8.11 µg/mL) in the data set on Staphylococcus aureus [1]; 4 µM (≈ 8.11 µg/mL) with Staphylococcus aureus [2]; 2 µM (≈ 4.05 µg/mL) in [3]; 2 µM (≈ 4.05 µg/mL) with Enterococcus faecalis; 8 µM (≈ 16.2 µg/mL) in the data set on Escherichia coli [4]; 8 µM (≈ 16.2 µg/mL) in the data set on Escherichia coli [5]. Besides, the MIC in the data set with Klebsiella pneumoniae and with Acinetobacter baumannii was 8 µM (≈ 16.2 µg/mL) each time. For the same molecule, in [6], the HC10 stood at 28.58 µM.

Take `CC(C)CCCCC(=O)N[C@@H](CCN)C(=O)N[C@H](C(=O)N[C@@H](CCN)C(=O)N[C@H]1CCNC(=O)[C@H]([C@@H](C)O)NC(=O)[C@H](CCN)NC(=O)[C@H](CCN)NC(=O)[C@H](CC(C)C)NC(=O)[C@@H](Cc2ccccc2)NC(=O)[C@H](CCN)NC1=O)[C@@H](C)O.CC[C@H](C)CCCCC(=O)N[C@@H](CCN)C(=O)N[C@H](C(=O)N[C@@H](CCN)C(=O)N[C@H]1CCNC(=O)[C@H]([C@@H](C)O)NC(=O)[C@H](CCN)NC(=O)[C@H](CCN)NC(=O)[C@H](CC(C)C)NC(=O)[C@@H](Cc2ccccc2)NC(=O)[C@H](CCN)NC1=O)[C@@H](C)O` (X1-[Dab]T[Dab][Dab][Dab][dF]L[Dab][Dab]T; lactam 4-C): in data set [6], the HC10 was greater than 256 µM. Besides, the Activity entry in the data set on BEAS-2B, in the data set with HEK-293T and with L02 was “Non-toxic” throughout.
